We go through 1 compound from ChEMBL document CHEMBL1201862, “PubChem BioAssay data set” (2004).

The structures appear in SMILES notation.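 Exposure lasted 48 hours, with cells grown in 96-well plates and compounds tested at five concentrations. At the GI50, growth is halved.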 The source made the active and inactive calls. Rule as the data show it: active = GI50 up to about 1.1 µM and inactive = higher.

Test systems include SF-295; M14; HCC 2998; MDA-MB-435; OVCAR-8; HCT-15; 786-0; NCI-H226; SK-OV-3; LOX IMVI; HOP-92; MCF7; UACC-62; OVCAR-5; BT-549; SW-620; MOLT-4; SN12C; U-251; TK-10.
Common to all, as to experiment: growth of human tumour cells (NCI), 48 h

Consider `CN(C)c1ccc(/C=C/C=c2/c3ccccc3n3c2cc(-c2ccccc2)[n+]3C)cc1`, for which the GI50 in the assay on SF-295 was 288 nM (active); in the assay on M14, 215 nM (active); in the assay with HCC 2998, 303 nM (active); in the assay with MDA-MB-435, 151 nM (active); in the assay with OVCAR-8, 102 nM (active); with HCT-15, 488 nM. The GI50 is 252 nM (active) in the assay with 786-0; 454 nM (active) in the assay on NCI-H226; 348 nM (active) in the assay with SK-OV-3; 105 nM (active) with LOX IMVI; 318 nM (active) with HOP-92; 93.5 nM (active) in the assay with MCF7. For the same compound, the GI50 in the assay with UACC-62 was 217 nM (active); in the assay with OVCAR-5 it was 478 nM (active); in the assay with BT-549, 233 nM (active); in the assay on SW-620 it was 73.1 nM (active); in the assay on MOLT-4, 88.1 nM (active); with SN12C it was 243 nM (active). For the same compound, the GI50 was 38.7 nM (active) in the assay with U-251 and 564 nM (active) in the assay on TK-10.
